Earlier results in patent publication US20230233572A1, “OPHTHALMIC COMPOSITIONS COMPRISING A COMBINATION OF FLUOROQUINOLONE ANTIBACTERIAL AGENT AND AN ANTI-INFLAMMATORY AGENT” (priority 2020, published 2023).

Tested on: corneal surface of rabbit eyes
Settings: in vivo

CC(O)COC[C@H]1O[C@@H]2O[C@H]3[C@H](O)[C@@H](O)[C@@H](O[C@H]4[C@H](O)[C@@H](O)[C@@H](O[C@H]5[C@H](O)[C@@H](O)[C@@H](O[C@H]6[C@H](O)[C@@H](O)[C@@H](O[C@H]7[C@H](O)[C@@H](O)[C@@H](O[C@H]8[C@H](O)[C@@H](O)[C@@H](O[C@H]1[C@H](O)[C@H]2O)O[C@@H]8COCC(C)O)O[C@@H]7COCC(C)O)O[C@@H]6COCC(C)O)O[C@@H]5COCC(C)O)O[C@@H]4COCC(C)O)O[C@@H]3COCC(C)O (stereo partly drawn) [HP-β-CD, hydroxypropyl-β-cyclodextrin]
Tolerance by the corneal surface: well tolerated | Toxicity or irritation in rabbit eyes: not to be toxic or irritating
